Results on three compounds are retold here after patent US4971967A, “Quinolinecarboxylic acid derivatives, antibacterial compositions and use” (Kanebo Ltd, priority 1989, dated 1990).

≈ marks a conversion by molar mass, not a printed value. Where a name gives a salt, the structure may show the parent alone. Read-outs that look alike come from different tables or passages of the source.

Common to all, as to assay type: cell-based
In test [1] the test system is Staphylococcus aureus FDA 209P JC-1. The test is described as follows: Antibacterial activity (MIC), S. aureus FDA 209P JC-1. The following applies: FDA209P, read-out: Minimum inhibitory concentration (MIC). Here is the method:
(§1) The compounds of the present invention (A, C, D, E, F, G, H, I, J, L, O and P) and the known compound (X) as reference were dissolved in 0.1 N aqueous sodium hydroxide to prepare a solution of 5000 μg/ml in concentration. The compounds of the present invention (B, K, M and N) and the known compound (Y) were dissolved in sterilized distilled water to prepare a solution of 5000 μg/ml in concentration. Each solution was diluted with sterilized distilled water to prepare a standard solution with a concentration of each test compound: 1000 μg/ml. The test was carried out by a method as appointed by Japan Society of Chemotherapy [cf. Chemotherapy, 29, 76-79 (1981)(TOKYO)].

Test [2] has as its system Serratia marcescens IAM 1184. Description: Antibacterial activity (MIC), Serratia marcescens IAM 1184. Conditions: for MIC: Serratia marcescens, IAM1184, Serratia marcescens IAM 1184, Gram -, read-out: Minimum inhibitory concentration (MIC). Here is the method:
as §1

Test [3] deals with Salmonella typhimurium IID 971. Description: Antibacterial activity (MIC), Salmonella typhimurium IID 971. The following applies: Salmonella enterica, read-out: Minimum inhibitory concentration (MIC). The protocol: as §1
In another test the test system is Escherichia coli KC-14. Description: Antibacterial activity (MIC), E. coli KC-14. Here is the method: as §1
Test [4] concerns Streptococcus faecalis IID 682. The test is described as follows: Antibacterial activity (MIC), Streptococcus faecalis IID 682. The following applies: Enterococcus faecalis, IID682, Streptococcus faecalis IID 682, Gram +; read-out: Minimum inhibitory concentration (MIC). The protocol:
as §1

Test [5] deals with Pseudomonas aeruginosa IFO 3445. Description: Antibacterial activity (MIC), P. aeruginosa IFO 3445. The following applies: for MIC: Pseudomonas aeruginosa, IFO3445, Pseudomonas aeruginosa IFO 3445, Gram -, read-out: Minimum inhibitory concentration (MIC). The protocol: as §1
Another test has as its system Enterobacter cloacae 963. Description: Antibacterial activity (MIC), Enterobacter cloacae 963. Here is the method:
as §1

Test [6] has as its system Acinetobacter calcoaceticus AC 54. The test is described as follows: Antibacterial activity (MIC), Acinetobacter calcoaceticus AC 54. Conditions: AC54; Acinetobacter calcoaceticus AC 54, Gram -; read-out: Minimum inhibitory concentration (MIC). The protocol: as §1
The test system of another test is Proteus vulgaris OX-19. Description: Antibacterial activity (MIC), Proteus vulgaris OX-19. The following applies: OX19; Proteus vulgaris OX-19, Gram -; read-out: Minimum inhibitory concentration (MIC). The protocol: as §1
Test [7] relates to Pseudomonas aeruginosa E-2. The test is described as follows: Antibacterial activity (MIC), P. aeruginosa E-2. The following applies: E2; Pseudomonas aeruginosa E-2, Gram -; read-out: Minimum inhibitory concentration (MIC). The protocol: as §1
In test [8] the test system is Enterobacter aerogenes ATCC 13048. The test is described as follows: Antibacterial activity (MIC), Enterobacter aerogenes ATCC 13048. The following applies: Klebsiella aerogenes. Here is the method:
as §1

Test [9] has as its system Klebsiella pneumoniae PCI-602. The test is described as follows: Antibacterial activity (MIC), Klebsiella pneumoniae PCI-602. The following applies: PCI602; Klebsiella pneumoniae PCI-602, Gram -; read-out: Minimum inhibitory concentration (MIC). Here is the method: as §1
Test [10] has as its system Escherichia coli NIHJ JC-2. Description: Antibacterial activity (MIC), E. coli NIHJ JC-2. Here is the method: as §1
The test system of test [11] is Bacillus subtilis ATCC 6633. Description: Antibacterial activity (MIC), Bacillus subtilis ATCC 6633. Conditions: for MIC: Bacillus subtilis, ATCC6633, Bacillus subtilis ATCC 6633, Gram +, read-out: Minimum inhibitory concentration (MIC). Here is the method:
as §1

In test [12] the test system is Morganella morganii IFO 3848. The test is described as follows: Antibacterial activity (MIC), Morganella morganii IFO 3848. The following applies: for MIC: Morganella morganii, IFO3848, Morganella morganii IFO 3848, Gram -, read-out: Minimum inhibitory concentration (MIC). Here is the method: as §1
Test [13] deals with Citrobacter freundii NIHJ 10018-68. Description: Antibacterial activity (MIC), Citrobacter freundii NIHJ 10018-68. The following applies: for MIC: Citrobacter freundii, NIHJ10018, Citrobacter freundii NIHJ 10018-68, Gram -, read-out: Minimum inhibitory concentration (MIC). The protocol: as §1
Test [14] deals with Pseudomonas aeruginosa NCTC 10490. The test is described as follows: Antibacterial activity (MIC), P. aeruginosa NCTC 10490. The following applies: for MIC: Pseudomonas aeruginosa, NCTC10490, Pseudomonas aeruginosa NCTC 10490, Gram -, read-out: Minimum inhibitory concentration (MIC). The protocol: as §1
For test [15], the system named is Proteus mirabilis IFO 3849. The test is described as follows: Antibacterial activity (MIC), Proteus mirabilis IFO 3849. The following applies: IFO3849; Proteus mirabilis IFO 3849, Gram -; read-out: Minimum inhibitory concentration (MIC). Here is the method: as §1
In test [16] the test system is Staphylococcus aureus IID 803. The test is described as follows: Antibacterial activity (MIC), S. aureus IID 803. Here is the method: as §1
Test [17] relates to Staphylococcus epidermidis IAM-1296. The test is described as follows: Antibacterial activity (MIC), S. epidermidis IAM-1296. The following applies: for MIC: Staphylococcus epidermidis. Here is the method: as §1
In test [18] the test system is Micrococcus luteus ATCC 9341. Description: Antibacterial activity (MIC), Micrococcus luteus ATCC 9341. The following applies: ATCC9341; Micrococcus luteus ATCC 9341, Gram +; read-out: Minimum inhibitory concentration (MIC). Here is the method: as §1
The next test deals with Shigella sonnei EW-33. Description: Antibacterial activity (MIC), Shigella sonnei EW-33. The following applies: for MIC: Shigella sonnei, EW33, Shigella sonnei EW-33, Gram -, read-out: Minimum inhibitory concentration (MIC). The protocol:
as §1

In the case of `CN1Cc2csc3c(C(=O)O)c(=O)c4cc(F)c(N5CCC(N)C5)c1c4n23` (stereo not drawn) [(H), 9,1-(Methylimino)methano-7-fluoro-8-(3-amino-1-pyrrolidinyl)-5-oxo-5H-thiazolo[3,2-a]quinoline-4-carboxylic acid], the MIC in test [1] (Staphylococcus aureus FDA 209P JC-1, Gram +) amounted to 0.025 µg/mL (≈ 0.0644 µM); in [2], 0.1 µg/mL (≈ 0.257 µM); in test [3] (Salmonella typhimurium IID 971, Gram -), 0.05 µg/mL (≈ 0.129 µM); in the test with Escherichia coli KC-14 (KC14, Escherichia coli KC-14, Gram -, read-out: Minimum inhibitory concentration (MIC)), 0.0125 µg/mL (≈ 0.0322 µM); in test [4], 0.05 µg/mL (≈ 0.129 µM); in test [5], 0.2 µg/mL (≈ 0.515 µM). Also, the MIC was 0.05 µg/mL (≈ 0.129 µM) with Enterobacter cloacae 963 (Enterobacter cloacae, 963, Enterobacter cloacae 963, Gram -, read-out: Minimum inhibitory concentration (MIC)); 0.0125 µg/mL (≈ 0.0322 µM) in test [6]; 0.0125 µg/mL (≈ 0.0322 µM) in the test on Proteus vulgaris OX-19; 0.39 µg/mL (≈ 1 µM) in test [7]; 0.05 µg/mL (≈ 0.129 µM) in test [8] (ATCC13048, Enterobacter aerogenes ATCC 13048, Gram -, read-out: Minimum inhibitory concentration (MIC)); 0.006 µg/mL (≈ 0.0154 µM) in test [9]. For the same compound, the MIC in test [10] (NIHJJC2, Escherichia coli NIHJ JC-2, Gram -, read-out: Minimum inhibitory concentration (MIC)) was found to be 0.05 µg/mL (≈ 0.129 µM); in test [11], 0.006 µg/mL (≈ 0.0154 µM); in test [12], 0.05 µg/mL (≈ 0.129 µM); in test [13], 0.1 µg/mL (≈ 0.257 µM); in test [14], 0.2 µg/mL (≈ 0.515 µM); in test [15], 0.1 µg/mL (≈ 0.257 µM). For the same compound, the MIC in [16] (IID803, Staphylococcus aureus IID 803, Gram +, read-out: Minimum inhibitory concentration (MIC)) was determined as 0.006 µg/mL (≈ 0.0154 µM); in [17] (IAM1296, Staphylococcus epidermidis IAM-1296, Gram +, read-out: Minimum inhibitory concentration (MIC)), 0.05 µg/mL (≈ 0.129 µM); in test [18] it was 0.2 µg/mL (≈ 0.515 µM); in the test on Shigella sonnei EW-33, 0.05 µg/mL (≈ 0.129 µM).
`CC1CN(c2c(F)cc3c(=O)c(C(=O)O)c4scc5n4c3c2N(C)C5)CCN1` (stereo not drawn) [Compound (D), 9,1-(Methylimino)methano-7-fluoro-8-(3-methyl-1-piperazinyl)-5-oxo-5H-thiazolo[3,2-a]quinoline-4-carboxylic acid]: the MIC in test [1] (Staphylococcus aureus) turned out to be 0.05 µg/mL (≈ 0.124 µM); in [2] it was 0.39 µg/mL (≈ 0.969 µM); in [3], 0.05 µg/mL (≈ 0.124 µM); with Escherichia coli KC-14 (Escherichia coli, KC14, read-out: Minimum inhibitory concentration (MIC)), 0.05 µg/mL (≈ 0.124 µM); in test [4], 0.1 µg/mL (≈ 0.248 µM); in test [5], 0.78 µg/mL (≈ 1.94 µM). The MIC in the test with Enterobacter cloacae 963 (Enterobacter cloacae, 963, read-out: Minimum inhibitory concentration (MIC)) was 0.05 µg/mL (≈ 0.124 µM); in test [6], 0.025 µg/mL (≈ 0.0621 µM); in the test with Proteus vulgaris OX-19 it was 0.006 µg/mL (≈ 0.0149 µM); in test [7], 0.78 µg/mL (≈ 1.94 µM); in [8] (ATCC13048, read-out: Minimum inhibitory concentration (MIC)) it was 0.05 µg/mL (≈ 0.124 µM); in test [9] it was 0.006 µg/mL (≈ 0.0149 µM). In addition, the MIC in [10] (Escherichia coli, NIHJJC2, read-out: Minimum inhibitory concentration (MIC)) is 0.05 µg/mL (≈ 0.124 µM); in [11] it was 0.006 µg/mL (≈ 0.0149 µM); in test [12] it was 0.1 µg/mL (≈ 0.248 µM); in test [13], 0.39 µg/mL (≈ 0.969 µM); in test [14], 0.39 µg/mL (≈ 0.969 µM); in test [15] it was 0.2 µg/mL (≈ 0.497 µM). Also, the MIC in test [16] (Staphylococcus aureus, IID803, read-out: Minimum inhibitory concentration (MIC)) was 0.05 µg/mL (≈ 0.124 µM); in [17] (IAM1296, read-out: Minimum inhibitory concentration (MIC)), 0.05 µg/mL (≈ 0.124 µM); in test [18], 0.39 µg/mL (≈ 0.969 µM); in the test on Shigella sonnei EW-33 it was 0.05 µg/mL (≈ 0.124 µM).
As to `CN1CCN(c2c(F)cc3c(=O)c(C(=O)O)c4scc5n4c3c2N(C)C5)CC1` [Compound (B), 9,1-(Methylimino)methano-7-fluoro-8-(4-methyl-1-piperazinyl)-5-oxo-5H-thiazolo [3,2-a]quinoline-4-carboxylic acid hydrochloride], the “Minimum inhibitory concentration (MIC)” value in test [2] (Serratia marcescens IAM 1184, Gram -, hydrochloride) was 0.39 µg/mL; in test [5] (Pseudomonas aeruginosa IFO 3445, Gram -, hydrochloride) it was 0.78 µg/mL; with Enterobacter cloacae 963 (Enterobacter cloacae 963, Gram -, hydrochloride), 0.10 µg/mL; in [11] (Bacillus subtilis ATCC 6633, Gram +, hydrochloride), 0.025 µg/mL; in test [12] (Morganella morganii IFO 3848, Gram -, hydrochloride) it was 0.10 µg/mL; in test [13] (Citrobacter freundii NIHJ 10018-68, Gram -, hydrochloride) it was 0.39 µg/mL. The “Minimum inhibitory concentration (MIC)” value in test [14] (Pseudomonas aeruginosa NCTC 10490, Gram -, hydrochloride) was 0.39 µg/mL; in [17] (Staphylococcus epidermidis IAM-1296, Gram +, hydrochloride) it was 0.10 µg/mL; in the test with Shigella sonnei EW-33 (Shigella sonnei EW-33, Gram -, hydrochloride), 0.05 µg/mL. Further, the MIC in test [6] was 0.05 µg/mL.
